This is an account of results in PMC5325712 (Journal of medicinal chemistry, 2017).

Experiment [1] relates to D2R. The conditions noted are these: at concentrations over 50 μM; cited from earlier work.
The target of experiment [2] is T1, D3R (Homo sapiens, UniProt P35462). The experiment in a line: β-arrestin recruitment assay. The conditions noted are these: dopamine curve-shift assays, best fit by F-test. For orientation: Arrestin recruitment assays detect the binding of arrestin to an activated receptor.
T1 sequence (P35462 whole entry, canonical isoform): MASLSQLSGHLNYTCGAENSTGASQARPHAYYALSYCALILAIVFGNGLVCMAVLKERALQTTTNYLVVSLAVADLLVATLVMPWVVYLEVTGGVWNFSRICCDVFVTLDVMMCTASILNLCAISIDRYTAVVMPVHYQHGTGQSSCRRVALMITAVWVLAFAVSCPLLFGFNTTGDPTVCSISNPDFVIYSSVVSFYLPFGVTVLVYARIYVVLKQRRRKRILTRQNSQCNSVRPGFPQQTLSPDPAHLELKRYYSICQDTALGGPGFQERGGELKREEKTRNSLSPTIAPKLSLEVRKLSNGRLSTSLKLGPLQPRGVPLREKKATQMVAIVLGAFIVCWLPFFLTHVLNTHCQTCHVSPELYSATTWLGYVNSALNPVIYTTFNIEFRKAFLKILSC
A further experiment addresses D2R long isoform (Homo sapiens, UniProt P14416). The experiment in a line: β-arrestin recruitment assay. Type of experiment: cell-based. Conditions: dopamine curve-shift / inhibition of dopamine stimulation.
Experiment [3] has as its target D3R. The conditions noted are these: read-out: D3R receptor binding affinities; cited from earlier work.
Experiment [4] deals with D2R. The conditions noted are these: 6 compared to 5; cited from earlier work.
Experiment [5] addresses T1, D3R. The conditions noted are these: Table 1; ratio of binding Ki values D2R/D3R.

Sequence of D2R long isoform (P14416 whole entry, canonical isoform): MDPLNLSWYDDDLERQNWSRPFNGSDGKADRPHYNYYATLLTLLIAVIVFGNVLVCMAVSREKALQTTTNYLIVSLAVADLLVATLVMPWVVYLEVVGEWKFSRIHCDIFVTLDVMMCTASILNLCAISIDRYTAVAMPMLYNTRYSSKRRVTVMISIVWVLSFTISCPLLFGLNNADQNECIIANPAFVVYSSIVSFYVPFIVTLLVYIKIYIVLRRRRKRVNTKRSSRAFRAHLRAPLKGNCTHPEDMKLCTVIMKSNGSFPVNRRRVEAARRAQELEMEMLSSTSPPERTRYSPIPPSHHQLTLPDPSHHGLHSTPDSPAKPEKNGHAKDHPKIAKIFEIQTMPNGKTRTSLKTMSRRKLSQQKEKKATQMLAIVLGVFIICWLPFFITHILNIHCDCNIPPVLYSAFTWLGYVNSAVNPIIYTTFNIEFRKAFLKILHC

As for `CC(C)NC(=O)c1cc2ccccc2[nH]1` [Compound 13b], the “mode of action at the D2R” value with D2R [1] was “allosteric antagonist of the D2R with modest negative cooperativity with dopamine”.

Turning to `CCN1CCCC1CNC(=O)c1cc(S(N)(=O)=O)ccc1OC` (stereo not shown) [sulpiride], the “mechanism of antagonism at the D3R” value on D3R [2] is reported as “competitive antagonist”. Besides, the “mechanism of antagonism at the D2R” value on D2R long isoform is listed as “competitive antagonist”.

As to `O=C(NC/C=C/CN1CCN(c2cccc(Cl)c2Cl)CC1)c1ccc(-c2ccccn2)cc1` [Compound 6], the Ki at D3R [3] is roughly 1 nM. In addition, the “lower affinity at D2R” value with D2R [4] is reported as ~ 2 fold.

For the compound `N#Cc1ccc2c(c1)CNCC2` [Compound 9b, 7-cyano-1,2,3,4-tetrahydroisoquinoline], the D2/D3 on D3R [5] is 7.5–9.1.

For the compound `N#Cc1cccc(N2CCNCC2)c1` [Compound 8, 3-(Piperazin-1-yl)benzonitrile], the D2/D3 at D3R [5] was 7.5–9.1.
